# Laboratory results from the supplement of paper PMC10307832.
# Key:
# Test in all cases: relative viability (nuclei count vs DMSO), 5 days (fraction); higher = more cells survive
# [1] = compound: C1CNCCC1C2=CC(=NN2)C3=CC=NC=C3 + Cc1cc(Nc2cc(N3CCN(C)CC3)nc(Sc3ccc(NC(=O)C4CC4)cc3)n2)n[nH]1 [Tozasertib] (partner 0.1 µM)
# Procedure, shortened: (§1)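 One day after seeding in 1536-well plates, lung cancer cell lines were dosed by pin tool. Dosing was either single-drug or a fixed anchor-drug dose plus five library-drug doses (not always all listed) in √10 steps. After 5 days, nuclei were stained in one fix-and-stain step and counted on 4× images, and relative viability is the nuclei count of treated wells over that of vehicle wells, given as the median of duplicate plates.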
# [2] = compound: C[C@@H](N)c1ccc(C(=O)Nc2ccnc3[nH]ccc23)cc1 + CC(=O)Nc1cccc(-n2c(=O)n(C3CC3)c(=O)c3c(Nc4ccc(I)cc4F)n(C)c(=O)c(C)c32)c1 [Trametinib] (partner 0.02 µM)
# Procedure, shortened: as §1
# [3] = compound: C[C@@H](N)c1ccc(C(=O)Nc2ccnc3[nH]ccc23)cc1 + Nc1nc2[nH]cc(CCc3ccc(C(=O)N[C@@H](CCC(=O)O)C(=O)O)cc3)c2c(=O)[nH]1 [Pemetrexed] (partner 0.2 µM)
# Procedure, shortened: as §1
# Tanzisertib + Dasatinib = compound: O[C@H]1CC[C@H](Nc2ncc3nc(Nc4c(F)cc(F)cc4F)n([C@H]4CCOC4)c3n2)CC1 [Tanzisertib] + Cc1nc(Nc2ncc(C(=O)Nc3c(C)cccc3Cl)s2)cc(N2CCN(CCO)CC2)n1 [Dasatinib] (partner 0.075 µM)
# Procedure, shortened: as §1
Cell Line,relative viability ([1]; first compound 0.08 µM),relative viability ([1]; first compound 0.8 µM),relative viability ([1]; first compound 2.53 µM),relative viability ([1]; first compound 8 µM),relative viability ([2]; first compound 0.04 µM),relative viability ([2]; first compound 0.1265 µM),relative viability ([2]; first compound 0.4 µM),relative viability ([2]; first compound 1.265 µM),relative viability ([2]; first compound 4 µM),relative viability ([3]; first compound 0.04 µM),relative viability ([3]; first compound 0.1265 µM),relative viability ([3]; first compound 0.4 µM),relative viability ([3]; first compound 1.265 µM),relative viability ([3]; first compound 4 µM),relative viability (Tanzisertib + Dasatinib; first compound 0.08 µM),relative viability (Tanzisertib + Dasatinib; first compound 0.253 µM),relative viability (Tanzisertib + Dasatinib; first compound 0.8 µM),relative viability (Tanzisertib + Dasatinib; first compound 2.53 µM),relative viability (Tanzisertib + Dasatinib; first compound 8 µM)
NCI-H2342,0.437,0.491,0.537,0.518,0.91,0.821,0.837,0.746,0.737,0.781,0.803,0.792,0.847,0.794,0.32,0.311,0.308,0.283,0.32
NCI-H2347,0.766,0.599,0.557,0.571,0.283,0.337,0.366,0.304,0.175,0.41,0.424,0.452,0.388,0.403,0.333,–,0.309,0.26,0.303
NCI-H2405,0.749,0.751,0.692,0.525,–,0.64,0.418,0.377,0.299,–,1.09,0.918,0.567,0.306,0.228,0.225,0.195,0.227,0.188
NCI-H3122,0.366,0.416,0.408,0.417,0.231,0.229,0.223,0.26,0.234,0.202,0.216,0.203,0.21,0.222,0.775,0.817,0.791,0.92,0.926
PC-3 [JPC-3],0.832,0.914,0.889,0.853,0.656,0.695,0.732,0.651,0.549,1.12,1.07,1.16,1.07,0.88,0.912,1.04,1.01,0.977,0.886
PC-14,0.648,0.589,0.661,0.542,0.736,0.656,0.497,–,0.431,0.139,0.126,0.138,–,0.169,0.341,0.238,0.306,0.234,0.116
RERF-LC-KJ,0.525,0.51,0.591,0.426,0.902,0.972,0.971,0.96,0.873,0.496,0.486,0.472,0.47,0.424,0.95,0.814,0.912,0.685,0.744
SK-LU-1,0.321,0.367,0.391,0.334,0.422,0.506,0.625,0.299,0.473,0.952,0.892,0.933,0.809,0.558,0.212,0.165,0.18,0.148,0.165
SK-MES-1,0.783,1,0.981,0.834,0.607,0.523,0.458,0.488,0.401,0.901,0.964,0.906,0.887,0.877,0.39,0.35,0.337,0.32,0.212
SW 900,0.648,0.623,0.514,0.681,0.888,0.861,1.04,1.14,0.993,0.465,0.478,0.475,0.5,0.474,0.692,0.574,0.585,0.621,0.496
SW 1573,–,0.202,0.174,0.148,0.767,0.615,0.598,0.56,0.529,0.792,0.792,0.845,0.582,0.703,0.595,0.662,0.46,0.552,0.513
